Reference: article PMC11284088, “Synthesis and biochemical characterization of naphthoquinone derivatives targeting bacterial histidine kinases” (The Journal of Antibiotics, 2024)
pIC50: −log10 of the molar value. “Also recorded” adds a separate entry of the source. Read-outs that look alike come from different tables or passages of the source.

Assays:
PhoQ = biological target: T1, PhoQ (Escherichia coli, UniProt P23837); assay: Inhibition of PhoQ autophosphorylation; format: biochemical, Escherichia coli K12; conditions: PhoQ; 1 µM HK, 40 µM ATP, buffer pH 7.5; read-out: IC50
T1 construct: cytoplasmic regions of PhoQ (261-486) and CpxA (188-457); His6 (C); made in house; host or cells: E. coli BL21(DE3)
T1 sequence (P23837 261-486): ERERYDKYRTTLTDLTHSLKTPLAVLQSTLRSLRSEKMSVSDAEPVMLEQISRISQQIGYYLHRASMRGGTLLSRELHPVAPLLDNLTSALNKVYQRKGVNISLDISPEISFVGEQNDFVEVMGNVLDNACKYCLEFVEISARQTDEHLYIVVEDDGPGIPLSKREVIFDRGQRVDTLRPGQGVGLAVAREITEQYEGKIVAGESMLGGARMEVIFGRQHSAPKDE
Protocol: (§1) Autophosphorylation of WalK was conducted at 0.5 or 1 µM in a reaction mixture comprising 50 mM Tris-HCl (pH 8.5), 100 mM KCl, 5 mM MgCl2, 100 mM NH4Cl, 5% DMSO, and 40 µM ATP. The total reaction volume was 40 µl, and the incubation lasted for 30 min at 25 °C. To terminate the reaction, 40 µl of 2 × SDS-PAGE sample buffer was added, followed by a 10-min incubation at 37 °C. Subsequently, SDS-PAGE (10% acrylamide) was performed, and the samples were subjected to Western blotting using a PVDF membrane (Bio-Rad 1620177). The primary antibody used was anti-N3-phosphohistidine antibody (clone SC56-2) (EDM Millipore Corp), and the secondary antibody was goat anti-rabbit IgG-HRP (Abcam). A 2% bovine serum albumin (Sigma-Aldrich) solution served as the blocking reagent. Signals originating from phosphorylated HKs were detected using the HRP substrate (Immobilon Western Chemiluminescent HRP substrate, Millipore) and the Multi Imager II Multi Box (Bio Tools). Signal intensities were quantified with Image Analysis Software CS Analyzer 4 (ATTO). IC50 values (50% inhibitory concentrations) were determined using Prism 7 software (GraphPad).
(§2) In the assessment of naphthoquinone derivatives, the initial screening for inhibitory activity against WalK autophosphorylation was conducted at 50 or 100 µg ml^−1. Compounds displaying inhibitory activity were further examined to ascertain their IC50 values against WalK. For the chosen compounds, inhibition against EvgS, EnvZ, PhoQ, and CpxA HKs was also assessed. These reactions involved the use of 1 µM HK, 40 µM ATP, and a 30 min incubation at 25 °C.

B. subtilis 168 strain = assay: MIC, standard microtiter broth dilution; format: cell-based, Bacillus subtilis; set-up: key to MIC: MIC + antibacterial activity against Bacillus subtilis 168
Protocol: The minimum inhibitory concentrations (MICs) were determined using the standard microtiter broth dilution method, as recommended by the guidelines of the Clinical Laboratory Standards Institute.

EvgS (559–1197) D1009A = biological target: T2, EvgS (559–1197) D1009A (Escherichia coli, UniProt P30855, D1009A); assay: Inhibition of EvgS autophosphorylation; format: biochemical, Escherichia coli K12; conditions: EvgS (559–1197) D1009A; 1 µM HK, 40 µM ATP, 30 min at 25 °C; read-out: IC50
T2 construct: EvgS (559–1197) D1009A; His6 (C); made in house; host or cells: E. coli BL21(DE3)
T2 sequence (P30855 559-1197 D1009A): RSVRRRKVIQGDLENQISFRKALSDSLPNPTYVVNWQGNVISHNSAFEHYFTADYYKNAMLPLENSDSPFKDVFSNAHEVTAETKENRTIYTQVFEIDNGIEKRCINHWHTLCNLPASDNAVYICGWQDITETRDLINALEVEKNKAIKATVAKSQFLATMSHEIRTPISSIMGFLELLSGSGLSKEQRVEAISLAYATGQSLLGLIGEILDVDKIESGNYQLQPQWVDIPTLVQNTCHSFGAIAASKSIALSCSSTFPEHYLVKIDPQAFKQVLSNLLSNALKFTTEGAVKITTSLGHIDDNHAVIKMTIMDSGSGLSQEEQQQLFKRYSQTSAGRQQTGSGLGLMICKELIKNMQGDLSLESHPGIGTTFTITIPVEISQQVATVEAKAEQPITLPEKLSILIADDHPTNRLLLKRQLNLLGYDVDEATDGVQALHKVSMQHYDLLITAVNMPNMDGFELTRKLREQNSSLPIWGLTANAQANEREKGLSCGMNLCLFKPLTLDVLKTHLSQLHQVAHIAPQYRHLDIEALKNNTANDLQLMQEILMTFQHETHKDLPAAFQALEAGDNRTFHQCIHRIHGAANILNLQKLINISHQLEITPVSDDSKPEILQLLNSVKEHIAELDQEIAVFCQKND
Protocol: as §1, §2

CpxA = biological target: T3, CpxA (Escherichia coli, UniProt P0AE82); assay: Inhibition of CpxA autophosphorylation; format: biochemical, Escherichia coli K12; conditions: CpxA; 1 µM HK, 40 µM ATP; read-out: IC50
T3 construct: cytoplasmic regions of PhoQ (261-486) and CpxA (188-457); His6 (C); made in house; host or cells: E. coli BL21(DE3)
T3 sequence (P0AE82 188-457): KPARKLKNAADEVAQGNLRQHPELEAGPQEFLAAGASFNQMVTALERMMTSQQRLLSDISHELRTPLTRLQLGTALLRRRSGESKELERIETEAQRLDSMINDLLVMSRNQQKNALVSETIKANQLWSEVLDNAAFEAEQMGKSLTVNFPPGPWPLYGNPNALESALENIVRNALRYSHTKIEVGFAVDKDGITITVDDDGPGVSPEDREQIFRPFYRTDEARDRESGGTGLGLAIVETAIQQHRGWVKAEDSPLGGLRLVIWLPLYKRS
Protocol: as §1, with “The” for “Autophosphorylation of WalK was conducted at 0.5 or 1 µM in a reaction mixture comprising 50 mM Tris-HCl (pH 8.5), 100 mM KCl, 5 mM MgCl2, 100 mM NH4Cl, 5% DMSO, and 40 µM ATP. The”
as §2, with “These reactions involved the use of 1 µM HK, 40 µM ATP, and a 30 min incubation at 25 °C.” left out

WalK = biological target: T4, WalK (Bacillus subtilis, UniProt Q45614); assay: Inhibition of WalK autophosphorylation; format: biochemical; set-up: key to WalK: WalK + inhibitory effect against WalK; conditions: for pIC50: against WalK from B. subtilis, autophosphorylation, N.I. = no inhibition, read-out: IC50; for inhibitory activity against WalK: in words; for WalK: summary class
T4 construct: His6 (N); made in house; host or cells: E. coli BL21(DE3)
T4 sequence (Q45614 207-611): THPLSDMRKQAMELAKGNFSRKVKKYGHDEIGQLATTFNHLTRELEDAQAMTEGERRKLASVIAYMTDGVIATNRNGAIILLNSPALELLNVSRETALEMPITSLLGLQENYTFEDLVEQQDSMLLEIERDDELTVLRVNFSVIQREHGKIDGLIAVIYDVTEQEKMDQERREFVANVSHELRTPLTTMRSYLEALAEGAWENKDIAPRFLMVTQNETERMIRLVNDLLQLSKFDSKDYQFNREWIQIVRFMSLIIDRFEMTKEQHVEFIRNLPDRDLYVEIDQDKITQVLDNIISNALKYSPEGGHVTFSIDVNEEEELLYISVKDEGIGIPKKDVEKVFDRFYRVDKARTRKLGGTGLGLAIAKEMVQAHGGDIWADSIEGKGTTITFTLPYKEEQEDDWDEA
Protocol: as §1, §2

[1] = test system: HKs (EvgS, EnvZ, PhoQ, and CpxA); assay: Inhibition of class I HKs, summary over several HKs; format: biochemical, Escherichia coli K12; set-up: key to HKs: HKs + inhibitory effect against HKs (EvgS, EnvZ, PhoQ, and CpxA); conditions: for inhibition of EvgS, EnvZ, PhoQ, and CpxA: in words; for HKs: summary class, EvgS, EnvZ, PhoQ, and CpxA
Protocol: as §1, §2

iseA (formerly yoeB) = assay: RT-qPCR of iseA expression in B. subtilis cells; format: cell-based, B. subtilis 168; set-up: key to RT-qPCR: RT-qPCR + iseA gene expression was induced in B. subtilis 168; − no effect; conditions: for expression of iseA: exponentially growing cells, subMIC or MIC levels, 5 min, relative to DMSO control; for RT-qPCR: summary class, iseA gene expression in B. subtilis 168
Protocol: In brief, the cells were aerated and grown to an optical density at 660 nm of 0.3–0.4 at 37 °C. After the addition of DMSO or naphthoquinone derivatives, the cultures were further incubated for 5 min, cooled on ice for 1 min, and then harvested by centrifugation (2300 × g, 10 min, 4 °C). The cells were resuspended in 800 µl of RNA Lysis Buffer (SV Total RNA Isolation System, Z3100, Promega), transferred to a screw-capped tube containing 400 mg of glass beads (GB-01, TOMY), and disrupted using MicroSmash (MS-100, TOMY Medico) at 3000 rpm, 60 s ON/OFF for 6 cycles. RNA was then purified from 175 µl of the supernatant using the SV Total RNA Isolation System, followed by DNase I treatment (Turbo DNA-free^TM Kit, AM1907, Invitrogen) to remove any residual genomic DNA contamination. […] The expression levels of the genes were normalized using the 16S rRNA gene as an internal standard. Each assay was performed at least three times. Statistical analyses were conducted using Tukey’s multiple comparison test (GraphPad Prism 7).

[2] = B. subtilis 168 strain grown in LB broth at 37 °C for 18 h
[3] = summary class, Bacillus subtilis 168

Row | Structure (SMILES) | pIC50 (PhoQ) | MIC (B. subtilis 168 strain; [2]) | MIC (B. subtilis 168 strain; B. subtilis 168 strain grown in LB broth at 37 °C for 18 h, listed as C00015) | MIC (B. subtilis 168 strain; [3]) | pIC50 (EvgS (559–1197) D1009A) | pIC50 (CpxA) | pIC50 (WalK; listed as C00015) | inhibitory activity against WalK (WalK) | WalK (WalK) | inhibition of EvgS, EnvZ, PhoQ, and CpxA [1] | HKs [1] | expression of iseA (iseA (formerly yoeB)) | RT-qPCR (iseA (formerly yoeB)) | pIC50 (WalK) | antibacterial (antimicrobial) activity against B. subtilis (B. subtilis 168 strain; in words)
1 | O=C1C(Cl)=C(Nc2ccc(Cl)c(O)c2)C(=O)c2c(O)ccc(O)c21 [2h, 2-chloro-3-((4-chloro-3-hydroxyphenyl)amino)-5,8-dihydroxynaphthalene-1,4-dione] | 4.37 | 8 µg/mL | 8 µg/mL | + | 4.59 | 4.71 | 4.90 | comparable to waldiomycin | + | inhibited all four of these HKs | + | significantly increased; also recorded: significantly induced iseA gene expression | + | – | –
2 | CC(C)(C)OC(=O)Nc1cccc(NC2=C(Cl)C(=O)c3c(O)ccc(O)c3C2=O)c1 [2l, tert-butyl (3-((3-chloro-5,8-dihydroxy-1,4-dioxo-1,4-dihydronaphthalen-2-yl)amino)phenyl)carbamate] | 3.88 | 8 µg/mL | – | + | 4.30 | 4.49 | – | comparable to waldiomycin | + | inhibited all four of these HKs | + | significantly increased; also recorded: significantly induced iseA gene expression | + | 4.89 | –
3 | Cc1noc2c1C(=O)c1c(O)ccc(O)c1C2=O [3b, 5,8-dihydroxy-3-methylnaphtho[2,3-d]isoxazole-4,9-dione] | 4.02 | 0.5 µg/mL | – | + | 3.96 | 3.98 | – | – | + | inhibited all four of these HKs | + | significantly increased; also recorded: significantly induced iseA gene expression | + | 3.73 | equal to waldiomycin or even stronger
